From patent US4551472A, “Unsymmetrical bis-carbamate compounds” (priority 1984, dated 1985)

Assays:
Tom = assay: Phytotoxicity Test, tomato; details: 2500 ppm spray, ten days
Experimental: (§1) Experiments were also conducted to determine the phytotoxicity of representative compounds with respect to healthy fresh plants. […] The test plants were sprayed in accordance with the procedure described above for the Mite Foliage Spray Test so as to deliver approximately 100 milliliters of test solution to the leaves of each plant tested. The sprayed plants and controls were set aside for approximately one hour to allow the foliage to dry and were then placed in the greenhouse. After ten days the plants were visually inspected to determine the extent of foliage injury. A rating of 1 indicates no perceptible injury; 5 indicates the plant was dead and ratings of 2, 3 and 4 indicate intermediate degrees of injury based upon the number and extent to which leaves were injured.

[1] = tested on: root-knot nematode, Meloidogyne incognita var. acrita; assay: Nematocide Test; also: key: 1: severe galling, equal to untreated plants; 2: moderate galling; 3: light galling; 4: very light galling; 5: no galling, perfect control; type: in vivo; details: 3.33 m.g. per jar; cucumber, approximately 3 weeks
Experimental: The test organism used was the infective migratory larvae of the root-knot nematode, Meloidogyne incognita var. acrita, reared in the greenhouse on roots of cucumber plants. Infected plants were removed from the culture, and the roots are chopped very finely. A small amount of this inoculum was added to a pint jar containing approximately 180 cc. of soil. The jars were capped and incubated for one week at room temperature. During this period eggs of the nematode were hatched, and the larval forms migrated into the soil.
Ten ml. of the test formulation were added to each of the two jars for each dosage tested. Following the addition of chemical, the jars were capped, and the contents thoroughly mixed on a ball mill for 5 minutes.
The test compounds were formulated by a standard procedure of solution in acetone addition of an emulsifier, and dilution with water. Primary screening tests were conducted at 3.33 m.g. of the test compound per jar.
The jars were left capped at room temperature for a period of 48 hours, and the contents then transferred to 3 inch pots. Subsequently, the pots were seeded to cucumber as an indicator crop and placed in the greenhouse where they were cared for in the normal fashion for approximately 3 weeks.
The cucumber plants were then taken from the pots, the soil removed from the roots; and the amount of galling visually rated.
In the test for activity against nematodes (nem) activity was rated as follows: […]

Cotton = assay: Phytotoxicity Test, cotton; details: 2500 ppm spray, ten days
Experimental: as §1

Soy = assay: Phytotoxicity Test, soy; details: 2500 ppm spray, ten days
Experimental: as §1

Corn = assay: Phytotoxicity Test, corn; details: 2500 ppm spray, ten days
Experimental: as §1

[2] = Mammalian Toxicity, peroral toxicity to rat; type: in vivo; details: in vivo, po, read-out: A.O. Rat LD50
Experimental: Certain compounds were also evaluated to determine their peroral toxicity to mammals by conventional methods. The representative animal selected for this experiment was the rat.

Bean = assay: Phytotoxicity Test, bean; details: 2500 ppm spray, ten days
Experimental: as §1

Compound	Phytotoxicity: Tom (Tom)	Biological Activity: Nem (nematode, galling rating) [1]	Phytotoxicity: Cotton (Cotton)	Phytotoxicity: Soy (Soy)	Phytotoxicity: Corn (Corn)	LD50 [2]	Phytotoxicity: Bean (Bean)
CSC(C)=NOC(=O)N(C)SN(C)C(=O)Oc1ccc(C(C)(C)C)cc1 [IX, N-[1-Methylthioacetaldehyde O-(N-methylcarbamoyl)oxime]N-[4-tert-butylphenyl-(N-methylcarbamoyloxy)]sulfide]	1	3	1	1	1	226 mg/kg	1
CSC(C)=NOC(=O)N(C)SN(C)C(=O)Oc1cccc2ccccc12 [VII, N-[1-Methylthioacetaldehyde O-(N-methylcarbamoyl)oxime]N-[1-naphthylmethylcarbamate]sulfide]	1	4	2	2	1	160 mg/kg	1
CSC(C)=NOC(=O)N(C)SN(C)C(=O)Oc1ccc(C(C)C)cc1 [VIII, N-[1-Methylthioacetaldehyde O-(N-methylcarbamoyl)oxime]N-[4-isopropylphenyl-(N-methylcarbamoyloxy)]sulfide]	1	4	1	1	1	160 mg/kg	1
CSC(C)=NOC(=O)N(C)SN(C)C(=O)Oc1ccc([N+](=O)[O-])cc1 [XII, N-[1-Methylthioacetaldehyde O-(N-methylcarbamoyl)oxime]N-[1-(N-methylcarbamoyloxy)-4-nitrobenzene]sulfide]	1	1	1	1	1	453 mg/kg	1
CCOC(=O)C(=NOC(=O)N(C)SN(C)C(=O)ON=C(C)SC)SC [XIII, N-[1-Methylthioacetaldehyde O-(N-methylcarbamoyl)oxime]N-[1-methylthio-1-ethoxycarbonylformaldehyde O-(N-methylcarbamoyl)oxime]sulfide]	1	3	1	2	1	160 mg/kg	1
CSC(C)=NOC(=O)N(C)SN(C)C(=O)Oc1cccc2c1CCCC2 [XIV, N-[1-Methylthioacetaldehyde O-(N-methylcarbamoyl)oxime]N-[1-(N-methylcarbamoyloxy)-5,6,7,8-tetrahydronaphthalene]sulfide]	1	4	1	1	1	285 mg/kg	1
CSC(C)=NOC(=O)N(C)SN(C)C(=O)Oc1ccc(SC)c(C)c1 [XV, N-[1-Methylthioacetaldehyde O-(N-methylcarbamoyl)oxime]N-[O-(N-methylcarbamoyl)-4-methylthio-3-methylphenyl]sulfide]	1	4	1	1	1	40 mg/kg	1
COC(=O)Nc1ccc(OC(=O)N(C)SN(C)C(=O)ON=C(C)SC)cc1C(C)C [XVI, N-[1-Methylthioacetaldehyde O-(N-methylcarbamoyl)oxime]N-[4-methoxycarbonylamino-(N-methylcarbamate)-3-isopropylphenyl]sulfide]	1	4	1	1	1	28.3 mg/kg	1
CSC(C)=NOC(=O)N(C)SN(C)C(=O)Oc1cc(C)c(C)c(C)c1 [XVIII, N-[1-Methylthioacetaldehyde O-(N-methylcarbamoyl)oxime]N-[3,4,5-trimethylphenyl-(N-methylcarbamoyloxy)]sulfide]	1	4	1	1	1	95.1 mg/kg	1
CN(SN(C)C(=O)Oc1cccc2ccccc12)C(=O)ON=C1CSCCS1 [XXII, N-[2-O-(N-methylcarbamoyl)oximino-1,4-dithiane]N-[1-naphthyl-(N-methylcarbamoyloxy)]sulfide]	1	4	1	2	1	453 mg/kg	1
CN(SN(C)C(=O)Oc1cccc2c1OC(C)(C)C2)C(=O)ON=C1CSCCS1 [XXIV, N-[2-O-(N-methylcarbamoyl)oximino-1,4-dithiane]N-[2,3-dihydro-2,2-dimethyl-7-(N-methylcarbamoyloxy)benzofuran]sulfide]	1	5	2	2	1	20 mg/kg	1
C#CCOc1ccccc1OC(=O)N(C)SN(C)C(=O)ON=C(C)SC [XXXIX]	1	3	2	2	1	160 mg/kg	1
CCCCCCCCCc1ccc(OC(=O)N(C)SN(C)C(=O)ON=C(C)SC)cc1 [XXXI]	1	5	1	1	1	> 640 mg/kg	1
CSC(C)=NOC(=O)N(C)SN(C)C(=O)Oc1ccccc1C1SCCS1 [XXXVI]	1	4	1	1	1	50.4 mg/kg	1
CSC(C)=NOC(=O)N(C)SN(C)C(=O)ON=C(C)SCCC#N [X]	1	1	2	1	1	67.3 mg/kg	1
